Like-named read-outs stand apart in the source and are kept apart here.
Key:
[1] = system: thrombus formation in the carotid artery (70% FeCl3 patch); experiment: Anti-thrombotic activity, FeCl3-induced carotid artery thrombosis; format: in vivo, Male Wistar rats; conditions: % animals protected; for responders at 90 µmol/kg / Antithrombotic activity (% protection): 90 μmol/kg p.o.
Experimental: Anti-Thrombotic Activity Assessment Experimental Procedure Male Wistar rats weighing 250-300 g were used after an acclimatization period of five days, and animals were divided in groups of 8 animals each for the treatments. […] The vehicle used to dissolve the products consisted of 1% Cremophor EL 27963, 1% Tween 80 and 0.5% Methocel E-15 in distilled water. After a fasting period of 8 hours with free access to drinking water each product was given by gavage 1 hour before induction of thrombosis. Thrombus formation was induced using a patch embedded with 70% FeCl3 solution applied onto the carotid artery using the same procedure described by Feuerstein G Z et al and later modified by Kurz et al (Feuerstein G Z, et al Artherioscler. Thromb. Vasc. Biol. 1999, 19: 2554-2562, Kurz K D, et al Thromb. Res. 1990, 60:269-280). Anti-thrombotic efficacy was evaluated at different times after dosage. Rats were anesthetized with sodium pentobarbital and then placed on a dorsal position over a thermal blanket laid on a surgical board and heated at 37° C. The left carotid artery was dissected and an electromagnetic blood flow probe was placed on the artery to measure blood flow. After application of the thrombotic stimuli, blood flow was monitored for the following 30 minutes. The vessel was considered occluded by the thrombus when flow reached 0.0 ml/min. Data were analysed by contingency tables using the Graph Pad Prism Program. P values were calculated using Fisher's exact test, values of p<0.05 were considered statistically significant. Results were expressed as % animals protected.

[2] = system: coronary angina caused by coronary obstruction (35% ferric chloride patch on left anterior descending coronary artery); experiment: Anti-anginal activity, ferric chloride-induced coronary angina (ECG S-wave); format: in vivo, Male Wistar rats; conditions: Rattus norvegicus, po, read-out: Antianginal activity (% inhibition of S-wave decrease)
Experimental: Anti-Anginal Activity Assessment
Male Wistar rats weighing 250-300 g were used after an acclimatization period of five days, and animals were divided in groups of 8 for each treatment. In all experiments, rats were treated with 90 μmol/kg of each product by oral gavage using an administration volume of 10 ml/kg unless otherwise stated. The vehicle used to dissolve the products consisted of 1% Cremophor EL 27963, 1% Tween 80 and 0.5% Methocel E-15 in distilled water. […]
The procedure used to test the anti-anginal activity was that described by Hirata Y et al (Hirata Y, et al. Journal of Cardiovascular Pharmacology 1998, 31: 322-326).
After treatment, animals were anaesthetized with pentobarbital and electrodes were set for standard limb lead II electrocardiogram recording (Grass polygraph model 7, amplifier 7DA and pre-amplifier 7P1).
To induce coronary angina caused by coronary obstruction, a 35%-ferric chloride embedded mini patch was applied onto the left anterior descending coronary artery just below the left auricle. In all groups, after application of the patch, the ECG was recorded during 10 minutes. The shortening of the S-wave amplitude was measured on the recorded ECG. Data were collected with a Biopac system model MP100 connected to a Pentium PC. Results were expressed as % inhibition of S-wave decrease vs the untreated control.

[3] = Rattus norvegicus, po, 4 h, 4 h after dosage, read-out: Antithrombotic activity (% protection)
[4] = 1 h, rat, 90 μmol/kg p.o., 1 h, vs untreated control
[5] = Rattus norvegicus, po, 2 h, 2 h after dosage, read-out: Antithrombotic activity (% protection)
[6] = Rattus norvegicus, po, 1 h, 1 h after dosage, read-out: Antithrombotic activity (% protection)
[7] = 4 h, rat, 90 μmol/kg p.o., 4 h, vs untreated control
[8] = Rattus norvegicus, po, 0.5 h, ½ h after dosage, read-out: Antithrombotic activity (% protection)

SMILES | responders at 90 µmol/kg [1, 3] [%] | responders at 90 µmol/kg [1, 5] [%] | responders at 90 µmol/kg [1, 6] [%] | other results
CC[S+]([O-])[C@@H]1CO[C@H]2[C@@H]1OC[C@H]2O[N+](=O)[O-] (single isomer, unassigned) [Ej. 13 isom 1] | 16 | – | – | Antithrombotic activity (% protection) ([1]; rat, 1 h after dosage): 32%
CC[S+]([O-])[C@@H]1CO[C@H]2[C@@H]1OC[C@H]2O[N+](=O)[O-] (single isomer, unassigned) [Ej. 13 isom 2] | – | – | – | Antithrombotic activity (% protection) ([1]; rat, 1 h after dosage): 83%; Antithrombotic activity (% protection) ([1]; rat, 4 h after dosage): 16%
O=[N+]([O-])O[C@@H]1CO[C@H]2[C@@H]1OC[C@@H]2S [Comp 1, (3R,3aS,6S,6aS)-6-(mercapto)hexahydrofuro[3,2-b]furan-3-yl nitrate, reference compound] | 16 | 32 | – | inhibition in vivo at 90 µmol/kg ([2]; 0.5 h, rat, 90 μmol/kg p.o., ½ h, vs untreated control): 0%; inhibition in vivo at 90 µmol/kg [2, 4]: 0%; inhibition in vivo at 90 µmol/kg ([2]; 2 h, rat, 90 μmol/kg p.o., 2 h, vs untreated control): 50%; responders at 230 µmol/kg ([1]; Rattus norvegicus, po, 1 h, 230 μmol/kg p.o., 1 h after dosage, read-out: Antithrombotic activity (% protection)): 50%
O=[N+]([O-])O[C@@H]1CO[C@H]2[C@@H]1OC[C@@H]2SCc1ccccc1 [Comp 2, (3R,3aS,6S,6aS)-6-(benzylthio)hexahydrofuro[3,2-b]furan-3-yl nitrate, reference compound] | – | – | 33 | –
CCOC(=O)CS[C@H]1CO[C@H]2[C@@H]1OC[C@H]2O[N+](=O)[O-] [Comp 3, Ethyl 2-((3S,3aS,6R,6aS)-6-(nitrooxy)hexahydrofuro[3,2-b]furan-3-ylthio)acetate, reference compound] | – | – | 32 | –
O=[N+]([O-])O[C@@H]1CO[C@H]2[C@@H]1OC[C@@H]2[S+]([O-])Cc1ccccc1 (stereo partly drawn) [Comp 4, (3R,3aS,6S,6aS)-6-((R,S)-benzylsulfinyl)hexahydrofuro[3,2-b]furan-3-yl nitrate, reference compound] | 0 | 0 | 20 | –
CCOC(=O)C[S+]([O-])[C@H]1CO[C@H]2[C@@H]1OC[C@H]2O[N+](=O)[O-] (stereo partly shown) [Comp 5, reference compound] | 0 | 0 | 16 | –
C[S@@+]([O-])[C@H]1CO[C@H]2[C@@H]1OC[C@H]2O[N+](=O)[O-] [Comp 6, (3R,3aS,6S,6aS)-6-((R)-methylsulfinyl)hexahydrofuro[3,2-b]furan-3-yl nitrate, reference compound] | 0 | 0 | 16 | inhibition in vivo at 90 µmol/kg [2, 4]: 48%; inhibition in vivo at 90 µmol/kg [2, 7]: 0%; responders at 90 µmol/kg [1, 8]: 40%
C[S@+]([O-])[C@H]1CO[C@H]2[C@@H]1OC[C@H]2O[N+](=O)[O-] [Comp 7, (3R,3aS,6S,6aS)-6-((S)-methylsulfinyl)hexahydrofuro[3,2-b]furan-3-yl nitrate, reference compound] | 0 | 0 | 0 | inhibition in vivo at 450 µmol/kg ([2]; 1 h, rat, 450 μmol/kg p.o., 1 h, vs untreated control): 73%; responders at 90 µmol/kg [1, 8]: 0%
O=[N+]([O-])O[C@@H]1CO[C@H]2[C@@H]1OC[C@@H]2S(=O)(=O)Cc1ccccc1 [Comp 8, (3R,3aS,6S,6aS)-6-(benzylsulfonyl)hexahydrofuro[3,2-b]furan-3-yl nitrate, reference compound] | – | – | 33 | –
CCCCS[C@H]1CO[C@H]2[C@@H]1OC[C@H]2O[N+](=O)[O-] [Comp 10, (3R,3aS,6S,6aS)-6-(butylthio)hexahydrofuro[3,2-b]furan-3-yl nitrate, reference compound] | – | – | 40 | –
CCCC[S+]([O-])[C@H]1CO[C@H]2[C@@H]1OC[C@H]2O[N+](=O)[O-] (stereo partly drawn) [Comp 11, (3R,3aS,6S,6aS)-6-((R,S)-butylsulfinyl)hexahydrofuro[3,2-b]furan-3-yl nitrate, reference compound] | – | – | 32 | –
CCCCS(=O)(=O)[C@H]1CO[C@H]2[C@@H]1OC[C@H]2O[N+](=O)[O-] [Comp 12, (3R,3aS,6S,6aS)-6-(butylsulfonyl)hexahydrofuro[3,2-b]furan-3-yl nitrate, reference compound] | – | – | 40 | –
CCS[C@H]1CO[C@H]2[C@@H]1OC[C@H]2O[N+](=O)[O-] [Ej. 1, (3R,3aS,6S,6aS)-6-(ethylthio)hexahydrofuro[3,2-b]furan-3-yl nitrate] | – | – | – | inhibition in vivo at 90 µmol/kg ([2]; 1 h): 29%; inhibition in vivo at 90 µmol/kg ([2]; 4 h): 0%; responders at 90 µmol/kg ([1]; po, rat, 1 h after dosage, read-out: Antithrombotic activity (% protection)): 32%
CCCS[C@H]1CO[C@H]2[C@@H]1OC[C@H]2O[N+](=O)[O-] [Ej. 2, (3R,3aS,6S,6aS)-6-(propylthio)hexahydrofuro[3,2-b]furan-3-yl nitrate] | – | – | 67 | inhibition in vivo at 90 µmol/kg [2, 4]: 69%; inhibition in vivo at 90 µmol/kg [2, 7]: 8%
C=CCS[C@H]1CO[C@H]2[C@@H]1OC[C@H]2O[N+](=O)[O-] [Ej. 3, (3R,3aS,6S,6aS)-6-(allylthio)hexahydrofuro[3,2-b]furan-3-yl nitrate] | – | – | 67 | –
CC[S+]([O-])[C@H]1CO[C@H]2[C@@H]1OC[C@H]2O[N+](=O)[O-] (stereo partly drawn) [Ej. 4, (3R,3aS,6S,6aS)-6-((R,S)-ethylsulfinyl)hexahydrofuro[3,2-b]-furan-3-yl nitrate] | 50 | 83 | 67 | inhibition in vivo at 90 µmol/kg [2, 4]: 84%; inhibition in vivo at 90 µmol/kg [2, 7]: 43%; responders at 90 µmol/kg [1, 8]: 32%
CCC[S+]([O-])[C@H]1CO[C@H]2[C@@H]1OC[C@H]2O[N+](=O)[O-] (stereo partly drawn) [Ej. 5, (3R,3aS,6S,6aS)-6-((R,S)-propylsulfinyl)hexahydrofuro[3,2-b]furan-3-yl nitrate] | 50 | 67 | 76 | inhibition in vivo at 90 µmol/kg [2, 4]: 87%; inhibition in vivo at 90 µmol/kg [2, 7]: 58%; responders at 90 µmol/kg [1, 8]: 40%
C=CC[S+]([O-])[C@H]1CO[C@H]2[C@@H]1OC[C@H]2O[N+](=O)[O-] (stereo partly drawn) [Ej. 6, (3R,3aS,6S,6aS)-6-((R,S)-allylsulfinyl)hexahydrofuro[3,2-b]furan-3-yl nitrate] | 17 | 34 | 67 | –
CCS(=O)(=O)[C@H]1CO[C@H]2[C@@H]1OC[C@H]2O[N+](=O)[O-] [Ej. 7, (3R,3aS,6S,6aS)-6-(ethylsulfonyl)hexahydrofuro[3,2-b]furan-3-yl nitrate] | 0 | 32 | 84 | inhibition in vivo at 90 µmol/kg [2, 4]: 81%; inhibition in vivo at 90 µmol/kg [2, 7]: 23%; responders at 90 µmol/kg [1, 8]: 50%
C=CCS(=O)(=O)[C@H]1CO[C@H]2[C@@H]1OC[C@H]2O[N+](=O)[O-] [Ej. 9, (3R,3aS,6S,6aS)-6-(allylsulfonyl)hexahydrofuro[3,2-b]furan-3-yl nitrate] | 0 | 50 | 83 | –
